Test results as given in US9877980B2, “Method and composition for treatment or prevention of type 2 diabetes and hyperlipidemia” (Chun-Ching Shih, priority 2016, dated 2018).
Marks after values point to notes of the source that are not given here.

Key:
Type in all cases: in vivo
[1] = test system: C57BL/6J mice on high-fat diet (HFD); assay: Blood parameters (glucose, insulin, TG, FFA, TC, leptin, adiponectin) in HFD mice; details: for Blood parameters Adiponectin / Blood parameters FFA / Blood parameters Leptin / Blood parameters TC / blood level of glucose / blood level of insulin: 4 weeks
Method: (§1) The following experiment was performed and approved by the guidelines of the Institutional Animal Care and Use Committee of Central Taiwan University of Science and Technology. The 4-week old male C57BL/6J mice (total amount n=63) were purchased from the National Laboratory Animal Breeding and Research Center (Taipei, Taiwan). After acclimatization for one week, all of the mice were divided randomly into the control (CON) group and the high-fat diet (HFD) group. […] After HFD exposure for 8 weeks, the HFD group was further randomly subdivided into 6 groups (n=9 per group) to receive different treatments by oral gavage once daily for four weeks and on HFD. […] The HF+B1, HF+B2, and […] are collectively termed BB-treated HFD groups in the following examples. The CON mice were administered vehicle. After dosing for 4 weeks, the mice were given no food at night and sacrificed after 12 h of fasting on the next day. All of the individual tissues were collected and weighed, and portions were instantly frozen using liquid nitrogen and kept at −80° C. for subsequent target gene analysis. Blood samples (0.8 mL) were collected for analysis of blood parameters.
A portion of the blood samples obtained from the retro-orbital sinus of fasted mice were immediately used to measure blood glucose levels using Sidekick glucose analyzer (YSI 1500, YSI Incorporated, Yellow Springs, USA) according to the glucose oxidase method. Heparin (30 units/mL, Sigma) was added into other portions of the blood samples. […] Concentrations of plasma triglycerides (TG), total cholesterol (TC), and free fatty acids (FFA) were determined using commercial assay kits according to the manufacturer's instructions (Triglycerides-E test, Cholesterol-E test, and FFA-C test, Wako Pure Chemical, Osaka, Japan). Plasma insulin, leptin, and adiponectin levels were assessed using commercial assay kits according to the manufacturer's instructions (mouse insulin ELISA kit, Mercodia, Uppsala, Sweden; mouse leptin ELISA kit, Morinaga, Yokohama, Japan; Mouse Adiponectin ELISA kit, Crystal Chem International, Downers Grove, Ill., USA).

GLUT4 = assay: Western blotting of membrane GLUT4 in skeletal muscle; details: HFD mice, 4 weeks, vs HF group
Method: as §1
The protein concentration in supernatant was determined with a BCA protein assay kit (Thermo Scientific, Rockford, Ill., USA). […] Immunoreactive bands were detected with ECL reagent kit (GE Healthcare BioSciences, Buckinghamshire, UK).

AMPK = assay: Western blotting of phospho-AMPK/total AMPK in skeletal muscle and liver; details: HFD mice, 4 weeks, vs HF group
Method: The following experiment was performed and approved by the guidelines of the Institutional Animal Care and Use Committee of Central Taiwan University of Science and Technology. The 4-week old male C57BL/6J mice (total amount n=63) were purchased from the National Laboratory Animal Breeding and Research Center (Taipei, Taiwan). After acclimatization for one week, all of the mice were divided randomly into the control (CON) group and the high-fat diet (HFD) group. For the following 12 weeks, the CON group (n=9) was kept on a low-fat diet (Diet 12450B, Research Diets, Inc., New Brunswick, N.J., USA), while the HFD group (n=54) was exposed to a high-fat diet (Diet 12451, Research Diets, New Brunswick, N.J., USA). The low-fat diet was composed of protein 20%, carbohydrate 70% and fat 10%, whereas the high-fat diet was composed of protein 20%, carbohydrate 35%, and fat 45% (of total energy, % kcal). After HFD exposure for 8 weeks, the HFD group was further randomly subdivided into 6 groups (n=9 per group) to receive different treatments by oral gavage once daily for four weeks and on HFD. […] The HF+B1, HF+B2, and […] are collectively termed BB-treated HFD groups in the following examples. The CON mice were administered vehicle. After dosing for 4 weeks, the mice were given no food at night and sacrificed after 12 h of fasting on the next day. All of the individual tissues were collected and weighed, and portions were instantly frozen using liquid nitrogen and kept at −80° C. for subsequent target gene analysis. Blood samples (0.8 mL) were collected for analysis of blood parameters.
Protein extractions and immunoblots for the determination of phospho-AMPK (Thr^172) and phospho-Akt (Ser^473) proteins in skeletal muscle and liver tissue of mice (n=9) were carried out. About 0.1 g of liver tissue and skeletal muscle was used for the homogenate samples. Samples were powdered under liquid nitrogen and homogenized for 20 seconds in 500 μL buffer containing 20 mM Tris-HCL1 (pH 7.4 at 4° C.), 2% SDS, 5 mM EDTA, 5 mM EGTA, 1 mM DTT, 100 mM NaF, 2 mM sodium vanadate, 0.5 mM phenylmethylsulfonyl fluoride, 10 μg/mL leupeptin, and […] pepstatin. The protein concentration in supernatant was determined with a BCA protein assay kit (Thermo Scientific, Rockford, Ill., USA). 20 μg of proteins were separated by electrophoresis on a polyacrylamide gel 12% (SDS-PAGE) and transferred to a nitrocellulose membrane. The membranes were blocked with 5% slim milk in Tris-buffered saline (TBS)(Amersham BioSciences, Uppsala, Sweden) containing 0.05% Tween-20 (Bio Rad, CA, USA) and incubated overnight at 4° C. with anti-phospho-AMPK (Abcam Inc., Cambridge, Mass., USA) and anti-phospho-Akt (Cell signaling Technology, Inc., Danvers, Mass., USA) rabbit polyclonal antibodies at 1:200 dilution. Subsequently, the membranes were washed three times with TBS containing 0.05% Tween-20 and incubated with secondary antibody anti-rabbit (1:1000) (Jackson ImmunoResearch Laboratories, Inc., PA, USA) for 1 hour. Immunoreactive bands were detected with ECL reagent kit (GE Healthcare BioSciences, Buckinghamshire, UK). The intensity of blotting was analyzed using Alpha Easy FC software (Alpha Innotech Corporation, Randburg, South Africa). Structural proteins GAPDH (Santa Cruz Biotechnology, CA, USA) in the samples were used as the loading control.

[2] = 10 mg/kg/day oral gavage, vs HF group
[3] = 20 mg/kg/day oral gavage, vs HF group
[4] = 40 mg/kg/day oral gavage, vs HF group

OCC1O[C@@H](O[C@@H]2Cc3c(O)cc(O)cc3O[C@@H]2c2ccc(O)c(O)c2)C(O)C(O)[C@@H]1O (single isomer, unassigned; (-)) [compound of formula I, (−)-epicatechin-3-O-β-D-allopyranoside]
Blood parameters Adiponectin ([1]; 10 mg/kg/day oral gavage): 2.895 ± 0.010^f μg/mL
Blood parameters FFA ([1]; 10 mg/kg/day oral gavage): 1.11 ± 0.13^d mEq/L
Blood parameters Leptin ([1]; 10 mg/kg/day oral gavage): 1.662 ± 0.009^f ng/mL
Blood parameters TC ([1]; 10 mg/kg/day oral gavage): 153.5 ± 7.7 mg/dL
blood level of glucose [1, 2]: markedly lowered
blood level of insulin [1, 2]: markedly lowered
Blood parameters Adiponectin ([1]; 20 mg/kg/day oral gavage): 3.277 ± 0.052^f μg/mL
Blood parameters FFA ([1]; 20 mg/kg/day oral gavage): 0.95 ± 0.04^f mEq/L
Blood parameters Leptin ([1]; 20 mg/kg/day oral gavage): 1.372 ± 0.029^f ng/mL
Blood parameters TC ([1]; 20 mg/kg/day oral gavage): 144.1 ± 4.0 mg/dL
blood level of glucose [1, 3]: markedly lowered
blood level of insulin [1, 3]: markedly lowered
Blood parameters Adiponectin ([1]; 40 mg/kg/day oral gavage): 3.628 ± 0.034^f μg/mL
Blood parameters FFA ([1]; 40 mg/kg/day oral gavage): 0.86 ± 0.09^f mEq/L
Blood parameters Leptin ([1]; 40 mg/kg/day oral gavage): 1.321 ± 0.008^f ng/mL
Blood parameters TC ([1]; 40 mg/kg/day oral gavage): 142.9 ± 6.6 mg/dL
blood level of glucose [1, 4]: markedly lowered
blood level of insulin [1, 4]: markedly lowered
circulating TG levels ([1]; oral gavage 4 weeks (formula I 10, 20, 40; Rosi 10; Feno 250 mg/kg/day), vs HF group): decreased
protein level of GLUT4 at the plasma membrane (GLUT4; 10 mg/kg/day oral gavage): significantly enhanced
protein level of GLUT4 at the plasma membrane (GLUT4; 20 mg/kg/day oral gavage): significantly enhanced
protein level of GLUT4 at the plasma membrane (GLUT4; 40 mg/kg/day oral gavage): significantly enhanced
expression level of phospho-AMPK/total AMPK (AMPK; liver, 10 mg/kg/day oral gavage): enhanced
expression level of phospho-AMPK/total AMPK (AMPK; liver, 20 mg/kg/day oral gavage): enhanced
expression level of phospho-AMPK/total AMPK (AMPK; liver, 40 mg/kg/day oral gavage): enhanced
expression level of phospho-AMPK/total AMPK (AMPK; skeletal muscle, 10 mg/kg/day oral gavage): enhanced
expression level of phospho-AMPK/total AMPK (AMPK; skeletal muscle, 20 mg/kg/day oral gavage): enhanced
expression level of phospho-AMPK/total AMPK (AMPK; skeletal muscle, 40 mg/kg/day oral gavage): enhanced
